Molecular target: T1, full-length human PKCι (Homo sapiens, UniProt P41743)
T1 construct: Recombinant, full-length human PKCι expressed in Sf21 insect cells is also commercially available; purchased; host or cells: Sf21 insect cells
T1 sequence (P41743 1-596): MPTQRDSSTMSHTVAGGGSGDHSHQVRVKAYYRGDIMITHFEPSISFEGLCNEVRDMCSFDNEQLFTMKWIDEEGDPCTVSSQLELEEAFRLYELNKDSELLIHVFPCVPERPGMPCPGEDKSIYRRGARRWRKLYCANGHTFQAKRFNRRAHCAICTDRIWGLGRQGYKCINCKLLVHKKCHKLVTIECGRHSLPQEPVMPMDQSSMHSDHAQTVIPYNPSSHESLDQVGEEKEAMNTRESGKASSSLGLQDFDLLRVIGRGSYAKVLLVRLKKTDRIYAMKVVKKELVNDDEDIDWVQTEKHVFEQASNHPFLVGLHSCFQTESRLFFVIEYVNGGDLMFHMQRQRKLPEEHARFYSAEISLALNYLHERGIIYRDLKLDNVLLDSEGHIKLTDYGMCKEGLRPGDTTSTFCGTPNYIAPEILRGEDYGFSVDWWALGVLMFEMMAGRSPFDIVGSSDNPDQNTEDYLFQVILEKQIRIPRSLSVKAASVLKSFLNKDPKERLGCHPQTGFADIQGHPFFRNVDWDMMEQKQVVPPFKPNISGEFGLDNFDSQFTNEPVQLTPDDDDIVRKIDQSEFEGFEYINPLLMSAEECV
Test: PKCι IC50 IMAP fluorescence polarisation assay, full-length enzyme
Format: biochemical
Conditions: full length PKCi at 15 μM ATP; read-out: IC50 in IMAP assay against full length PKCi

| SMILES | IC50 [µM] |
| --- | --- |
| COc1ncccc1-c1c(C)sc2c(NC[C@@H](N)Cc3ccccc3)nc(-c3ccncc3)nc12 [compound 465, (S)-N*1*-[7-(2-Methoxy-pyridin-3-yl)-6-methyl-2-pyridin-4-yl-thieno[3,2-d]pyrimidin-4-yl]-3-phenyl-propane-1,2-diamine] | 10 to 40 |
| COc1ccc(OC)c(-c2c(C)sc3c(NC[C@@H](N)Cc4ccccc4)nc(-c4ccncc4)nc23)c1 [compound 466, (S)-N*1*-[7-(2,5-Dimethoxy-phenyl)-6-methyl-2-pyridin-4-yl-thieno[3,2-d]pyrimidin-4-yl]-3-phenyl-propane-1,2-diamine] | 10 to 40 |
| COc1ccc(F)cc1-c1c(C)sc2c(NC[C@@H](N)Cc3ccccc3)nc(-c3ccncc3)nc12 [compound 467, (S)-N*1*-[7-(5-Fluoro-2-methoxy-phenyl)-6-methyl-2-pyridin-4-yl-thieno[3,2-d]pyrimidin-4-yl]-3-phenyl-propane-1,2-diamine] | 10 to 40 |
| Cc1c(-c2ccnn2C)sc2c(N[C@@H]3CCNC3)nc(-c3ccncc3)nc12 [compound 469, [7-Methyl-6-(2-methyl-2H-pyrazol-3-yl)-2-pyridin-4-yl-thieno[3,2-d]pyrimidin-4-l]-(R)-pyrrolidin-3-yl-amine] | 10 to 40 |
| CCC(C)(C)C(=O)Nc1csc2c(N[C@@H]3CCNC3)nc(-c3ccncc3)nc12 [compound 471, 2,2-Dimethyl-N-[2-pyridin-4-yl-4-((R)-pyrrolidin-3-ylamino)-thieno[3,2-d]pyrimidin-7-yl]-butyramide] | 10 to 40 |
| CCC(C)(C)C(=O)Nc1csc2c(NC[C@@H](N)Cc3ccccc3)nc(-c3ccncc3)nc12 [compound 472, N-[4-((S)-2-Amino-3-phenyl-propylamino)-2-pyridin-4-yl-thieno[3,2-d]pyrimidin-7-yl]-2,2-dimethyl-butyramide] | 10 to 40 |
| O=C(Nc1csc2c(N[C@@H]3CCNC3)nc(-c3ccncc3)nc12)C1CCCCC1 [compound 473, Cyclohexanecarboxylic acid [2-pyridin-4-yl-4-((R)-pyrrolidin-3-ylamino)-thieno[3,2-d]pyrimidin-7-yl]-amide] | 10 to 40 |
| N[C@H](CNc1nc(-c2ccncc2)nc2c(NC(=O)C3CCCCC3)csc12)Cc1ccccc1 [compound 474, Cyclohexanecarboxylic acid [4-((S)-2-amino-3-phenyl-propylamino)-2-pyridin-4-yl-thieno[3,2-d]pyrimidin-7-yl]-amide] | 10 to 40 |
| O=C(Nc1csc2c(N[C@@H]3CCNC3)nc(-c3ccncc3)nc12)C1CCCC1 [compound 475, Cyclopentanecarboxylic acid [2-pyridin-4-yl-4-((R)-pyrrolidin-3-ylamino)-thieno[3,2-d]pyrimidin-7-yl]-amide] | 10 to 40 |
| Cc1cccc(Nc2csc3c(N[C@@H]4CCNC4)nc(-c4ccncc4F)nc23)c1 [compound 492, 2-(3-Fluoro-pyridin-4-yl)-N*4*-(R)-pyrrolidin-3-yl-N*7*-m-tolyl-thieno[3,2-d]pyrimidine-4,7-diamine] | 10 to 40 |
| Fc1ccc(Nc2csc3c(N[C@@H]4CCNC4)nc(-c4ccncc4F)nc23)cc1 [compound 493, N*7*-(4-Fluoro-phenyl)-2-(3-fluoro-pyridin-4-yl)-N*4*-(R)-pyrrolidin-3-yl-thieno[3,2-d]pyrimidine-4,7-diamine] | 10 to 40 |
| Fc1cnccc1-c1nc(N[C@@H]2CCNC2)c2scc(Nc3cccnc3)c2n1 [compound 494, 2-(3-Fluoro-pyridin-4-yl)-N*7*-pyridin-3-yl-N*4*- (R)-pyrrolidin-3-yl-thieno[3,2-d]pyrimidine-4,7-diamine] | 10 to 40 |
| Fc1cnccc1-c1nc(N[C@@H]2CCNC2)c2scc(Nc3ccccn3)c2n1 [compound 495, 2-(3-Fluoro-pyridin-4-yl)-N*7*-pyridin-2-yl-N*4*- (R)-pyrrolidin-3-yl-thieno[3,2-d]pyrimidine-4,7-diamine] | 10 to 40 |
| Cc1cc(Nc2csc3c(N[C@@H]4CCNC4)nc(-c4ccncc4F)nc23)no1 [compound 496, 2-(3-Fluoro-pyridin-4-yl)-N*7*-(5-methyl-isoxazol-3-yl)-N*4*-(R)-pyrrolidin-3-yl-thieno[3,2-d]pyrimidine-4,7-diamine] | 10 to 40 |
| Fc1cnccc1-c1nc(N[C@@H]2CCNC2)c2scc(Nc3ccon3)c2n1 [compound 497, 2-(3-Fluoro-pyridin-4-yl)-N*7*-isoxazol-3-yl-N*4*- (R)-pyrrolidin-3-yl-thieno[3,2-d]pyrimidine-4,7-diamine] | 10 to 40 |

The next lines start with the values.

| IC50 [µM] | SMILES |
| --- | --- |
| 10 to 40 | COc1ccc(C(C)C)cc1-c1c(C)sc2c(NC[C@@H](N)Cc3ccccc3)nc(-c3ccncc3)nc12 [compound 462, (S)-N*1*-[7-(5-Isopropyl-2-methoxy-phenyl)-6-methyl-2-pyridin-4-yl-thieno[3,2-d]pyrimidin-4-yl]-3-phenyl-propane-1,2-diamine] |
| 10 to 40 | CCOc1ccc(Cl)cc1-c1c(C)sc2c(NC[C@@H](N)Cc3ccccc3)nc(-c3ccncc3)nc12 [compound 463, (S)-N*1*-[7-(5-Chloro-2-ethoxy-phenyl)-6-methyl-2-pyridin-4-yl-thieno[3,2-d]pyrimidin-4-yl]-3-phenyl-propane-1,2-diamine] |
| 10 to 40 | COc1ccc(C(F)(F)F)cc1-c1c(C)sc2c(NC[C@@H](N)Cc3ccccc3)nc(-c3ccncc3)nc12 [compound 464, (S)-N*1*-[7-(2-Methoxy-5-trifluoromethyl-phenyl)-6-methyl-2-pyridin-4-yl-thieno[3,2-d]pyrimidin-4-yl]-3-phenyl-propane-1,2-diamine] |
| 1 to 10 | CC(C)(C)c1sc2c(NC[C@@H](N)Cc3ccccc3)nc(-c3ccncc3)nc2c1-c1ccn[nH]1 [compound 468, (S)-N*1*-[6-tert-Butyl-7-(2H-pyrazol-3-yl)-2-pyridin-4-yl-thieno[3,2-d]pyrimidin-4-yl]-3-phenyl-propane-1,2-diamine] |
| 0.1 to 1 | N[C@H](CNc1nc(-c2ccncc2)nc2c(Nc3ccccc3)csc12)Cc1ccccc1 [compound 485, N*4*-((S)-2-Amino-3-phenyl-propyl)-N*7*-phenyl-2-pyridin-4-yl-thieno[3,2-d]pyrimidine-4,7-diamine] |
| < 0.1 | N[C@H](CNc1nc(-c2ccncc2)nc2c(Nc3ccccn3)csc12)Cc1ccccc1 [compound 486, N*4*-((S)-2-Amino-3-phenyl-propyl)-2-pyridin-4-yl-N*7*-pyridin-2-yl-thieno[3,2-d]pyrimidine-4,7-diamine] |
| 1 to 10 | c1ccc(Nc2csc3c(N[C@@H]4CCNC4)nc(-c4ccncc4)nc23)nc1 [compound 487, 2-Pyridin-4-yl-N*7*- pyridin-2-yl-N*4*-(R)-pyrrolidin-3-yl-thieno[3,2-d]pyrimidine-4,7-diamine] |
| 0.1 to 1 | N[C@H](CNc1nc(-c2ccncc2)nc2c(Nc3ncccn3)csc12)Cc1ccccc1 [compound 488, N*4*-((S)-2-Amino-3-phenyl-propyl)-2-pyridin-4-yl-N*7*-pyrimidin-2-yl-thieno[3,2-d]pyrimidine-4,7-diamine] |
| 1 to 10 | N[C@H](CNc1nc(-c2ccncc2)nc2c(Nc3ccncn3)csc12)Cc1ccccc1 [compound 489, N*4*-((S)-2-Amino-3-phenyl-propyl)-2-pyridin-4-yl-N*7*-pyrimidin-4-yl-thieno[3,2-d]pyrimidine-4,7-diamine] |
| < 0.1 | Cc1cc(Nc2csc3c(NC[C@@H](N)Cc4ccccc4)nc(-c4ccncc4)nc23)no1 [compound 490, N*4*-((S)-2-Amino-3-phenyl-propyl)-N*7*-(5-methyl-isoxazol-3-yl)-2-pyridin-4-yl-thieno[3,2-d]pyrimidine-4,7-diamine] |
| 1 to 10 | N[C@H](CNc1nc(-c2ccncc2F)nc2c(Nc3ccccc3)csc12)Cc1ccccc1 [compound 491, N*4*-((S)-2-Amino-3-phenyl-propyl)-2-(3-fluoro-pyridin-4-yl)-N*7*-phenyl-thieno[3,2-d]pyrimidine-4,7-diamine] |
| 1 to 10 | Cc1ccccc1Nc1csc2c(N[C@@H]3CCNC3)nc(-c3ccncc3F)nc12 [compound 498, 2-(3-Fluoro-pyridin-4-yl)-N*4*-(R)-pyrrolidin-3-yl-N*7*-o-tolyl-thieno[3,2-d]pyrimidine-4,7-diamine] |
| 1 to 10 | Fc1cccc(Nc2csc3c(N[C@@H]4CCNC4)nc(-c4ccncc4F)nc23)c1 [compound 499, N*7*-(3-Fluoro-phenyl)-2-(3-fluoro-pyridin-4-yl)-N*4*-(R)-pyrrolidin-3-yl-thieno[3,2-d]pyrimidine-4,7-diamine] |
| 0.1 to 1 | Fc1ccccc1Nc1csc2c(N[C@@H]3CCNC3)nc(-c3ccncc3F)nc12 [compound 500, N*7*-(2-Fluoro-phenyl)-2-(3-fluoro-pyridin-4-yl)-N*4*-(R)-pyrrolidin-3-yl-thieno[3,2-d]pyrimidine-4,7-diamine] |
| 0.1 to 1 | N[C@H](CNc1nc(-c2ccncc2F)nc2c(C#CCCO)csc12)Cc1ccccc1 [compound 501, 4-[4-((S)-2-Amino-3-phenyl-propylamino)-2-(3-fluoro-pyridin-4-yl)-thieno[3,2-d]pyrimidin-7-yl]-but-3-yn-1-ol] |
| 1 to 10 | Cc1c(C#CC(C)(C)O)sc2c(N[C@@H]3CCNC3)nc(-c3ccncc3)nc12 [compound 502, 2-Methyl-4-[7-methyl-2-pyridin-4-yl-4-((R)-pyrrolidin-3-ylamino)-thieno[3,2-d]pyrimidin-6-yl]-but-3-yn-2-ol] |

Source: patent US10183950B2, “Thienopyrimidine inhibitors of atypical protein kinase C” (Cancer Research Technology Limited, priority 2011, dated 2019)
